Experiment [1] relates to mouse serum albumin (MSA) in mouse blood plasma. Description: Ultrafiltration albumin-binding assay of 177Lu-DOTA-ALBs, mouse blood plasma. The method, then:
(§1) The relative affinities of ^177Lu-labeled DOTA-ALBs (50 MBq/nmol) to albumin in mouse and human blood plasma were determined using an ultrafiltration assay according to a previously described procedure (Supplementary Materials Section S5). A dry chemistry analyzer (DRI-CHEM 4000i, FUJIFILM, Japan) was used to determine the mouse serum albumin concentration (conc. MSA: ~550 µM) in mouse blood plasma (Rockland Immunochemicals, Inc., Pottstown, PA, USA, Lot No. 23248) and the human serum albumin concentration (conc. HSA: ~800 µM) in human blood plasma of a healthy volunteer (Stiftung Blutspende SRK Aargau-Solothurn, Aarau, Switzerland). The albumin-bound fraction of the radioligands was determined at variable molar concentration ratios of serum albumin to the respective radiolabeled DOTA-ALB using a blood plasma/PBS dilution series and a constant amount of ^177Lu-DOTA-ALBs (0.5 MBq; 0.01 nmol). The free (albumin-unbound) radioligand fraction was separated from the albumin-bound fraction using Centrifree filter devices (cut-off 10 kDa; Merck Millipore, Carrigtwohill, Ireland) to enable the calculation of the percentage of albumin-bound radioligand. […] The results were presented as average ± standard deviation (SD) of 3 independent experiments. […]
(§2) S5. Relative Albumin-binding Properties of 177Lu-DOTA-ALBs
(§3) Purpose: The relative albumin-binding affinities of the 177Lu-DOTA-ALBs were in-vestigated using mouse and human blood plasma.
(§4) Methods: Relative binding affinities of 177Lu-DOTA-ALBs to mouse (MSA) and hu-man (HSA) serum albumin in the respective blood plasma were determined using an ul-trafiltration assay according to a previously described procedure. In brief, an average MSA concentration of ⁓550 µM was measured for mouse blood plasma (Rockland Immu-nochemicals, Inc., Pottstown, PA, USA, Lot N° 23248), while an HSA concentration of ⁓800 µM was determined for human blood plasma (Stiftung Blutspende SRK Aargau-Solothurn, Aarau, Switzerland) using a dry chemistry analyzer (DRI-CHEM 4000i, FUJI-FILM, Japan). A fixed amount of the respective 177Lu-DOTA-ALB (50 MBq/nmol:, ~500 kBq, 25 µL, 0.01 nmol) was added to a defined volume (250 µL) of mouse and human […]
(§5) and 0.01 to 20000, respectively. […]
(§6) off 10 kDa; Merck Millipore, Carrigtwohill, Ireland). The albumin-bound fractions at the […]
(§7) the half-maximum binding (B50). The relative albumin-binding affinities were defined as […]
(§8) sented as average ± SD of 3 independent experiments.
(§9) Results: The results are reported in the main article.
(§10) S6. Blood Clearance of 177Lu-DOTA-ALBs […]
(§11) their blood clearance profile.
(§12) Blood clearance of 177Lu-labeled DOTA-ALBs were determined in n=3–6 mice per radioligand. The radiolabeled DOTA-ALBs ( […]
(§13) various timepoints over the following 48 h. […]
(§14) up to 3 and 7 days, respectively. […]

Experiment [2] has as its system human serum albumin (HSA) in human blood plasma. Nature of the experiment: Ultrafiltration albumin-binding assay of 177Lu-DOTA-ALBs, human blood plasma. The method, then:
as §1, §2, §3, §4, §5, §6, §7, §8, §9, §10, §11, §12, §13, §14

Turning to `O=C(O)CN1CCN(CC(=O)O)CCN(CC(=O)NCCC(=O)N[C@@H](CCCCNC(=O)c2ccc(CNC(=O)CCCCc3ccc(I)cc3)cc2)C(=O)O)CCN(CC(=O)O)CC1.[177Lu]` [[^177Lu]Lu-DOTA-ALB-25], the “Fold higher albumin-binding affinity than [177Lu]Lu-DOTA-ALB-24” value in experiment [1] is given as ~ 5 fold; in experiment [2], ~ 3 fold.
On to `O=C(O)CN1CCN(CC(=O)O)CCN(CC(=O)NCCC(=O)N[C@@H](CCCCNC(=O)c2ccc(CNC(=O)CCCc3ccc(I)cc3)cc2)C(=O)O)CCN(CC(=O)O)CC1.[177Lu]` [[^177Lu]Lu-DOTA-ALB-3], for which, in experiment [1], the “Fold increased albumin-binding affinity relative to [177Lu]Lu-DOTA-ALB-1” value was ~ 15 fold and the “Fold stronger albumin-binding affinity than [177Lu]Lu-DOTA-ALB-25” value was ~ 10 fold. In addition, in experiment [2], the “Albumin-binding affinity relative to [177Lu]Lu-DOTA-ALB-1” value is given as “almost no difference” and the “Fold stronger albumin-binding affinity than [177Lu]Lu-DOTA-ALB-25” value is reported as ~ 4 fold.
With `O=C(O)CN1CCN(CC(=O)O)CCN(CC(=O)NCCC(=O)N[C@@H](CCCCNC(=O)CCCc2ccc(I)cc2)C(=O)O)CCN(CC(=O)O)CC1.[177Lu]` [[^177Lu]Lu-DOTA-ALB-1], the “Fold higher albumin-binding affinity than [177Lu]Lu-DOTA-ALB-24” value in experiment [1] is given as ~ 3 fold; in experiment [2] it was ~ 10 fold.

These data come from paper PMC10486429, “Investigations Using Albumin Binders to Modify the Tissue Distribution Profile of Radiopharmaceuticals Exemplified with Folate Radioconjugates” (Cancers, 2023).
